The structures appear in SMILES notation.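 A five-concentration, 48-hour dose response in 96-well plates underlies each endpoint, interpolated linearly between surrounding concentrations. GI50: concentration for 50% inhibition of growth. Definition used: TGI = concentration required for complete inhibition of growth.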

Test systems include HOP-62 NSCLC; CCRF-CEM leukemia; OVCAR-4 ovarian; A549 NSCLC; UO-31 renal; SF-268 CNS; SW-620 colon; OVCAR-3 ovarian.
Common to all, as to assay: growth of human tumour cells (NCI), 48 h

For the compound `CO[C@H]1CC[C@@]2(C)C(=CC[C@H]3[C@@H]4C[C@H](O)C[C@@]4(C)CC[C@@H]32)C1`, the GI50 was 10.2 µM in the assay with HOP-62 NSCLC; 3.05 µM with CCRF-CEM leukemia; 8.82 µM in the assay with OVCAR-4 ovarian; 4.42 µM in the assay on A549 NSCLC; 6.53 µM in the assay with UO-31 renal; 6.42 µM in the assay with SF-268 CNS. Moreover, the figures for the GI50 in the assay on SW-620 colon and in the assay on OVCAR-3 ovarian were 3.38 µM and 2.47 µM, respectively. Besides, the TGI was determined as 52.4 µM in the assay with HOP-62 NSCLC; 19.1 µM with CCRF-CEM leukemia; 54.2 µM in the assay on OVCAR-4 ovarian; 19.6 µM with A549 NSCLC; 23.4 µM in the assay on UO-31 renal; 21.4 µM in the assay with SF-268 CNS. The TGI in the assay with SW-620 colon stood at 15 µM; in the assay with OVCAR-3 ovarian, 5.63 µM.
Turning to `COc1ccc(F)cc1C(=O)c1cnc(NC2CCN(S(C)(=O)=O)CC2)nc1N`, the GI50 in the assay with HOP-62 NSCLC is 5.42 µM; in the assay with CCRF-CEM leukemia it was 2.63 µM; with OVCAR-4 ovarian, 5.7 µM; in the assay with A549 NSCLC it was 3.14 µM; in the assay on UO-31 renal, 3.69 µM; with SF-268 CNS it was 4.58 µM. Also, the results for the GI50 in the assay on SW-620 colon and in the assay with OVCAR-3 ovarian were 0.636 µM and 4.15 µM, respectively. Also, the TGI in the assay with HOP-62 NSCLC was above 20.6 µM; with CCRF-CEM leukemia, above 21.3 µM; in the assay with OVCAR-4 ovarian, above 21.4 µM; in the assay on A549 NSCLC it was above 23.7 µM; in the assay with UO-31 renal it was above 18.6 µM; in the assay with SF-268 CNS, 18.1 µM. The TGI in the assay on SW-620 colon was above 16.6 µM; in the assay on OVCAR-3 ovarian, 14.6 µM.
Turning to `CC(C)=CCC/C(C)=C/CC/C(=C/COP(=O)(OCc1ccc([N+](=O)[O-])o1)N(C)CCCCCl)C(C)(C)C` (centres undefined), the GI50 was 1.83 µM in the assay on HOP-62 NSCLC; 0.0571 µM in the assay with CCRF-CEM leukemia; 11.8 µM with OVCAR-4 ovarian; 10.9 µM in the assay with A549 NSCLC; above 23.3 µM in the assay on UO-31 renal; 3.69 µM in the assay with SF-268 CNS. For the same compound, the GI50 in the assay on SW-620 colon is 3.07 µM; in the assay with OVCAR-3 ovarian it was 1.94 µM. Also, the TGI is 3.86 µM with HOP-62 NSCLC; 27.4 µM in the assay on CCRF-CEM leukemia; 33.1 µM in the assay on OVCAR-4 ovarian; 27.5 µM with A549 NSCLC; above 44.1 µM in the assay on UO-31 renal; 19.3 µM in the assay on SF-268 CNS. Besides, the TGI worked out at 8.57 µM in the assay with SW-620 colon and 3.66 µM in the assay on OVCAR-3 ovarian.
With `COc1cc(C(=O)n2nc(N3CCN(C)CC3)c3cc(N)ccc32)cc(OC)c1OC`, the GI50 was 5.56 µM in the assay on HOP-62 NSCLC; 3.78 µM in the assay on CCRF-CEM leukemia; 4.17 µM with OVCAR-4 ovarian; 6.89 µM in the assay on A549 NSCLC; 2.87 µM with UO-31 renal; 4.19 µM in the assay with SF-268 CNS. In addition, the figures for the GI50 with SW-620 colon and in the assay with OVCAR-3 ovarian were 5.28 µM and 2.39 µM, respectively. Also, the TGI in the assay with HOP-62 NSCLC was above 100 µM; in the assay on CCRF-CEM leukemia it was above 100 µM; in the assay with OVCAR-4 ovarian it was above 100 µM; in the assay on A549 NSCLC, above 100 µM; in the assay with UO-31 renal, 18.1 µM; with SF-268 CNS it was 88.9 µM. The TGI in the assay on SW-620 colon is above 100 µM; with OVCAR-3 ovarian, 5.62 µM.
`O=C1/C(=C/c2ccc(Cl)cc2)CN(C(=O)C(Cl)Cl)C/C1=C\c1ccc(Cl)cc1`: the GI50 in the assay on HOP-62 NSCLC was 0.288 µM; in the assay with CCRF-CEM leukemia, 0.0742 µM; in the assay on OVCAR-4 ovarian, 0.283 µM; in the assay with A549 NSCLC it was 0.275 µM; with UO-31 renal, 0.156 µM; with SF-268 CNS, 0.315 µM. The GI50 in the assay on SW-620 colon is 0.04 µM; in the assay with OVCAR-3 ovarian, 0.151 µM. Further, the TGI in the assay on HOP-62 NSCLC was 0.94 µM; in the assay on CCRF-CEM leukemia it was above 59.3 µM; in the assay with OVCAR-4 ovarian, 1.32 µM; in the assay with A549 NSCLC, 1.05 µM; in the assay on UO-31 renal, 0.3 µM; in the assay on SF-268 CNS, 1.48 µM. The results for the TGI in the assay on SW-620 colon and in the assay with OVCAR-3 ovarian were 0.231 µM and 0.407 µM, respectively.
As to `Nc1nccc(Nc2ccc(S(N)(=O)=O)cc2)n1`, the TGI with HOP-62 NSCLC, in the assay with CCRF-CEM leukemia, with OVCAR-4 ovarian, with A549 NSCLC, in the assay with UO-31 renal and with SF-268 CNS was above 100 µM in each case. In addition, the TGI in the assay on SW-620 colon and in the assay on OVCAR-3 ovarian was above 100 µM each time.
As to `C[C@]12CCC(=O)C=C1CC[C@@H]1[C@@H]2CC[C@]2(C)C(=O)/C(=C/c3cccc(OCCN4CCOCC4)c3)C[C@@H]12`, the GI50 was 12.6 µM in the assay with HOP-62 NSCLC; 4.49 µM in the assay with CCRF-CEM leukemia; 3.01 µM in the assay with OVCAR-4 ovarian; 7.17 µM in the assay on A549 NSCLC; 12.1 µM in the assay on UO-31 renal; 13.6 µM with SF-268 CNS. For the same compound, the figures for the GI50 in the assay on SW-620 colon and in the assay with OVCAR-3 ovarian were 8.45 µM and 3.91 µM, respectively. The TGI with HOP-62 NSCLC was 29 µM; with CCRF-CEM leukemia, 28.6 µM; in the assay with OVCAR-4 ovarian, above 100 µM; with A549 NSCLC it was 89.5 µM; with UO-31 renal, 30 µM; in the assay with SF-268 CNS, 76.6 µM. Besides, the TGI with SW-620 colon is 27.7 µM; in the assay with OVCAR-3 ovarian, 16 µM.

For the origin of these results see PubChem BioAssay (NCI).
